Measurements as given in PubChem BioAssay (NCI).
Values joined by “and” are separate entries in the source; they are usually repeats but may differ in a detail not shown here. Identical values can stand only once.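 The compound was tested at five concentrations on cells cultured in 96-well plates, with a 48-hour exposure period. The concentration for 50% growth inhibition is given as GI50. At the TGI there is no net growth.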

Experiments:
Assay in all cases: growth of human tumour cells (NCI), 48 h
SK-OV-3 ovarian = test system: SK-OV-3 ovarian
CAKI-1 renal = test system: CAKI-1 renal
KM12 colon = test system: KM12 colon
SN12C renal = test system: SN12C renal
MDA-MB-231 breast = test system: MDA-MB-231 breast
SK-MEL-2 melanoma = test system: SK-MEL-2 melanoma
HS 578T breast = test system: HS 578T breast
UACC-62 melanoma = test system: UACC-62 melanoma
MCF7 breast = test system: MCF7 breast
HCT-15 colon = test system: HCT-15 colon

Row | SMILES | GI50 (SK-OV-3 ovarian) | TGI (SK-OV-3 ovarian) [µM] | GI50 (CAKI-1 renal) [µM] | TGI (CAKI-1 renal) [µM] | GI50 (KM12 colon) | TGI (KM12 colon) [µM] | GI50 (SN12C renal) | TGI (SN12C renal) [µM] | GI50 (MDA-MB-231 breast) | TGI (MDA-MB-231 breast) | GI50 (SK-MEL-2 melanoma) | TGI (SK-MEL-2 melanoma) [µM] | GI50 (HS 578T breast) | TGI (HS 578T breast) [µM] | GI50 (UACC-62 melanoma) [µM] | TGI (UACC-62 melanoma) [µM] | GI50 (MCF7 breast) | TGI (MCF7 breast) [µM] | GI50 (HCT-15 colon) | TGI (HCT-15 colon) [µM]
1 | CCCN1CCC=C(c2ccc(Nc3nc(Nc4ccccc4C(N)=O)c4cc[nH]c4n3)c(C)c2)C1 | 9.68 µM | > 25 | 9.49 | > 25 | 9.48 µM | > 25 | > 21.1 µM | > 25 | > 16.6 µM | > 25 µM | 2.51 µM | 15.4 | > 17.8 µM | > 25 | 14.4 | > 25 | 0.289 µM | > 25 | 8.98 µM | > 25
2 | COc1cc(Cn2c(-c3ccccc3)cc3c2-c2oncc2CC3)cc(OC)c1 | 0.4 µM | > 100 | 0.354 | > 100 | 0.313 µM | 9.76 | 0.738 µM | > 100 | 0.694 µM | > 24.2 µM | 81.2 µM | > 100 | 0.264 µM | 50.1 | 0.314 | > 100 | 0.307 µM | > 100 | 0.361 µM | > 100
3 | NS(=O)(=O)c1ccc(NC(=O)c2cccc(NC3=C(Cl)C(=O)N(Cc4ccccc4)C3=O)c2)cc1 | 26.9 µM | 77.5 | 12.5 | 25.9 | 6.83 µM | 26.5 | 11.6 µM | 25.9 | 6.93 µM | 37 µM | 10.3 µM | 33.2 | 7.92 µM | 36.7 | 9.05 | 22.9 | 3.61 µM | 14.6 | 15.1 µM | 38.8
4 | CN(C(=O)CNC(=O)/C=C/c1cccc(Cl)c1)C1CCS(=O)(=O)CC1 | 18.2 µM | > 100 | 3.78 | > 100 | 7.99 µM | > 100 | 2.99 µM | > 100 | 0.525 µM | > 100 µM | 15.6 µM | > 100 | 90.4 µM | > 100 | 0.986 | > 100 | 1.03 µM | > 100 | 0.819 µM | > 100
5 | Nc1nc(N)c2c(n1)NC(c1sc(Cl)nc1Cl)CC(c1ccc3c(c1)OCO3)=N2 (stereo not given) | 2.78 µM | 9.77 | 3.17 | > 100 | 3.93 µM | 21.4 | 6.55 µM | 22.3 | 5.81 µM | 22.3 µM | 5.19 µM | 19 | 2.35 µM | 31.1 | 2.17 | 18.9 | 2.81 µM | 47.2 | 1.07 µM | 20
6 | CC1=C(N2CC2)C(=O)c2ccccc2C1=O | – | > 100 | – | 1.79 | – | 2.64 | – | 2.09 | – | 32.8 µM | – | 4.06 | – | 4.89 | – | 2.05 | – | 1.82 | – | 3.52
7 | O=C(NOCCO)c1cc(CN2OCCCC2=O)c(F)c(F)c1Nc1ccc(I)cc1F | 22.6 µM and > 2.5 µM | > 85.8 | 0.29 | > 40.5 | 0.0561 µM and 0.0719 µM | > 100 | 2.15 µM and 2.17 µM | > 100 | 0.243 µM and 0.116 µM | 62.2 µM and > 10 µM | < 0.01 µM and 0.00324 µM | – | 20.6 µM and > 10 µM | > 100 | < 0.01 | – | 28.8 µM and > 10 µM | > 100 | 5.74 µM and > 6.24 µM | > 100
8 | COc1ccc(C(=O)c2cc3c(N)c(C(=O)Nc4cccc(OC)c4)sc3nc2C)cc1 | – | > 100 | 0.694 | > 100 | 0.568 µM | > 100 | 0.867 µM | > 100 | 1.47 µM | > 100 µM | > 100 µM | > 100 | 0.546 µM | > 100 | 0.594 | > 100 | 0.42 µM | > 100 | 0.479 µM | > 100
9 | Nc1c(C(=O)Nc2cccc3ccccc23)sc2nc3c(cc12)C(=O)CCC3 | 0.173 µM | 7.65 | 0.359 | > 100 | 0.217 µM | > 100 | 0.539 µM | > 100 | 0.379 µM | 6.92 µM | 0.0915 µM | 19.1 | 0.226 µM | > 100 | 0.166 | > 75.8 | 0.206 µM | > 100 | 0.262 µM | > 100
10 | Cc1cc2nc3c4ccc(Br)cc4n(CCN(C)C)c3nc2cc1C | 2.65 µM | 12.7 | 1.53 | 5.42 | 1.54 µM | 4.66 | 1.1 µM | 6.18 | 1.97 µM | 7.45 µM | 2 µM | 4.24 | 2.06 µM | 6.38 | 1.82 | 3.68 | 1.17 µM | 3.06 | 0.751 µM | 6.24
11 | O=C(Nc1cccc(C(F)(F)F)c1)c1cc2ccccc2cc1O | 1.55 µM | 6.32 | 0.345 | 1.22 | 2.45 µM | 8.44 | 1.49 µM | > 100 | 2.08 µM | 7.08 µM | 2.7 µM | 18.7 | 1.89 µM | > 44 | 0.835 | > 46.1 | 0.708 µM | > 43.6 | 2.34 µM | > 100
12 | C/C(=N/O)c1ccc(Nc2cc(-n3ccnc3)c3ccccc3n2)cc1 | > 100 µM | > 100 | 26.6 | > 100 | 2.64 µM | 18.5 | 39.5 µM | > 100 | 8.81 µM | 38.2 µM | 38.5 µM | > 100 | 12.9 µM | > 100 | 27.8 | > 100 | 85.3 µM | > 100 | 14.3 µM | 37.3
13 | O=C(/C=C/c1cccc2ccccc12)Nc1ncc(Cc2ccccc2)s1 | 1.71 µM | > 29.9 | 0.609 | 3.71 | 0.866 µM | > 100 | 1.16 µM | > 100 | 2 µM | > 40.3 µM | 1.41 µM | > 100 | 0.703 µM | 5.34 | 0.437 | > 100 | 0.434 µM | > 100 | 0.507 µM | > 100
14 | COc1cc2c(cc1OCCCOc1ccc(-c3nc4ccc(N5CCN(C)CC5)cc4[nH]3)cc1)N=C[C@@H]1CCCN1C2=O | < 0.01 µM | 22.8 | < 0.01 | < 0.01 | < 0.01 µM | – | < 0.01 µM | < 0.01 | < 0.01 µM | < 0.01 µM | < 0.01 µM | < 0.01 | < 0.01 µM | < 0.01 | < 0.0133 | < 0.0201 | < 0.01 µM | 5.12 | < 0.0212 µM | 42.8
15 | COc1ccc(C2=Nc3c/c(=C\c4c(O)[nH]c5cc(Cl)ccc45)ccc3=N2)cc1 | 12.4 µM | 30.5 | 14.5 | 43.6 | 2.49 µM | 14.2 | 13.9 µM | 30 | 5.23 µM | 19.6 µM | 8.86 µM | 26.6 | 10.6 µM | 43.1 | 8.95 | 22.7 | 2.42 µM | 12.8 | 3 µM | 11.5
16 | CCCCCCCCCCSC(=N)N | 7.38 µM | 19.9 | 1.75 | 5.26 | 2.45 µM | 6.5 | 5.09 µM | 18.4 | 2.51 µM | 9.15 µM | 1.68 µM | 3.27 | 2.93 µM | 12.5 | 1.98 | 4.45 | 2.19 µM | 6.03 | 2.01 µM | 4.73
17 | Cc1ccc(-c2n[nH]c(=O)c3noc(-c4ccc(C)cc4)c23)cc1 | 1.51 µM | 11.5 | 2.27 | > 100 | 0.713 µM | > 100 | 1.4 µM | > 100 | 1.77 µM | 39.8 µM | 0.451 µM | 9.49 | 1.31 µM | 15.9 | 0.718 | 56.5 | 0.565 µM | > 100 | 0.651 µM | > 100
18 | C=CC(C)(O)CC/C=C(\CO)C(=O)OC1C(C)OC(O[C@](C)(C=C)CC/C=C(\CO)C(=O)O[C@H]2C[C@@]3(C(=O)OC4OC(CO)C(O)C(O)C4OC4OC(C)C(OC5OC(CO)C(O)C5O)C(OC5OC(CO)C(O)C(O)C5O)C4O)C(CC2(C)C)C2=CCC4[C@@]5(C)CC[C@H](OC6OC(COC7OC(C)C(O)C(O)C7OC7OCC(O)C(O)C7O)C(O)C(O)C6NC(C)=O)C(C)(C)C5CC[C@@]4(C)[C@]2(C)C[C@H]3O)C(O)C1O (stereo not given in full) | 0.203 µM | 0.794 | 0.196 | 0.916 | 0.285 µM | 1.98 | 0.0798 µM | 0.343 | 0.0722 µM | 0.39 µM | 0.229 µM | 1.5 | 0.989 µM | 7.16 | 0.687 | 5.28 | 0.822 µM | 4.1 | 4.72 µM | 10.6
19 | CC(N1CCOCC1)C(O)(c1ccccc1)c1ccccn1 (stereo not given) | – | > 100 | – | > 100 | – | > 100 | – | > 100 | – | > 100 µM | – | > 100 | – | > 100 | – | > 100 | – | > 100 | – | > 100
20 | Cn1cc(C2=C(c3cn(CCCCC(=N)N)c4ccccc34)C(=O)NC2=O)c2ccccc21 | > 25 µM | > 25 | > 25 | > 25 | 20.3 µM | > 25 | > 25 µM | > 25 | > 25 µM | > 25 µM | 12.6 µM | > 25 | > 25 µM | > 25 | > 25 | > 25 | 10.9 µM | > 25 | > 25 µM | > 25
21 | O=C(/C=C/c1ccco1)c1ccc(Nc2nc(Nc3ccc(F)cc3)nc(Nc3ccc(F)cc3)n2)cc1 | 32 µM | > 100 | 26.7 | 60.5 | 13.3 µM | > 100 | 54.8 µM | > 100 | 23.7 µM | > 100 µM | 39 µM | > 100 | 22.8 µM | 65 | > 100 | > 100 | 3.74 µM | 25.9 | 22.5 µM | > 100
22 | O=S(=O)(O)SCCNCCCCCC1CCCCC1 | – | 31.2 | – | 35.4 | – | 7.76 | – | 11.3 | – | 30 µM | – | 8.68 | – | 36.2 | – | 4.22 | – | 7.32 | – | 24.5
23 | Cc1cc2nc(-c3c(F)cccc3Cl)n(Cc3c(F)cccc3Cl)c2cc1C | 19.3 µM | 51.8 | 2.92 | 14.6 | 10.5 µM | 37.7 | 11.7 µM | 24.2 | 10.4 µM | 23.1 µM | 50.2 µM | > 100 | 15.8 µM | 48.4 | 6.41 | 19.3 | 12.8 µM | > 100 | 13.9 µM | 33.3
24 | COc1cc(/C=N/NC(=O)c2ccccc2Nc2cccc(C(F)(F)F)c2)cc(OC)c1OC | 2.92 µM | 8.44 | 1.4 | 4.71 | 1.29 µM | 4.17 | 5.94 µM | 15.4 | 6.33 µM | 20.5 µM | 9.63 µM | 33.2 | 0.971 µM | 6.6 | 3.66 | 11.6 | 1.57 µM | 6.86 | 2.85 µM | 13.2
25 | O=C(CCCCCCCCC(=O)N/N=C\c1cc(Cl)ccc1O)N/N=C\c1cc(Cl)ccc1O | 0.685 µM | 79.9 | 0.251 | > 100 | 0.594 µM | > 100 | 0.427 µM | > 100 | 0.265 µM | > 82.6 µM | 0.441 µM | 18.9 | 16.4 µM | > 100 | 0.235 | – | 0.364 µM | > 100 | 0.251 µM | > 100
